Measurements from patent US11260049B2, “TRPV4 antagonists” (GlaxoSmithKline Intellectual Property (No. 2) Limited, priority 2016, dated 2022).
pIC50: −log10 of the molar value.

molecular target: human TRPV4 (Homo sapiens (Human), UniProt Q9HBA0); test: FLIPR assay for hTRPV4 expressed in BHK cells; type: cell-based; settings: inhibition of Agonist Compound (EC80)-induced calcium signal; BHK/AC9 cells expressing human TRPV4; read-out: IC50
Protocol: FLIPR Assay for hTRPV4 Expressed in BHK Cells:
TRPV4 channel activation results in an influx of divalent and monovalent cations including calcium. The resulting changes in intracellular calcium were monitored using a calcium specific fluorescent dye Fluo-4 (MDS Analytical Technologies). BHK/AC9 cells transduced with BacMam virus expressing the human TRPV4 gene at a MOI of 78 were plated in a 384 well poly-D lysine coated plate (15,000 cells/well in 50 μL culture medium containing DMEM/F12 with 15 mM HEPES, 10% FBS, 1% Penicillin-Streptomycin and 1% L-glutamine). Cells were incubated for 24 hours at 37° C. and 5% CO2. Culture medium was then aspirated using a Tecan plate-washer and replaced with 20 μL/well of dye loading buffer: HBSS, 500 μM Brilliant Black (MDS Analytical Technologies), and 2 μM Fluo-4 AM. Dye loaded plates were then incubated in the dark at room temperature for 1˜1.5 hours.

Chain of human TRPV4 (Q9HBA0 whole entry): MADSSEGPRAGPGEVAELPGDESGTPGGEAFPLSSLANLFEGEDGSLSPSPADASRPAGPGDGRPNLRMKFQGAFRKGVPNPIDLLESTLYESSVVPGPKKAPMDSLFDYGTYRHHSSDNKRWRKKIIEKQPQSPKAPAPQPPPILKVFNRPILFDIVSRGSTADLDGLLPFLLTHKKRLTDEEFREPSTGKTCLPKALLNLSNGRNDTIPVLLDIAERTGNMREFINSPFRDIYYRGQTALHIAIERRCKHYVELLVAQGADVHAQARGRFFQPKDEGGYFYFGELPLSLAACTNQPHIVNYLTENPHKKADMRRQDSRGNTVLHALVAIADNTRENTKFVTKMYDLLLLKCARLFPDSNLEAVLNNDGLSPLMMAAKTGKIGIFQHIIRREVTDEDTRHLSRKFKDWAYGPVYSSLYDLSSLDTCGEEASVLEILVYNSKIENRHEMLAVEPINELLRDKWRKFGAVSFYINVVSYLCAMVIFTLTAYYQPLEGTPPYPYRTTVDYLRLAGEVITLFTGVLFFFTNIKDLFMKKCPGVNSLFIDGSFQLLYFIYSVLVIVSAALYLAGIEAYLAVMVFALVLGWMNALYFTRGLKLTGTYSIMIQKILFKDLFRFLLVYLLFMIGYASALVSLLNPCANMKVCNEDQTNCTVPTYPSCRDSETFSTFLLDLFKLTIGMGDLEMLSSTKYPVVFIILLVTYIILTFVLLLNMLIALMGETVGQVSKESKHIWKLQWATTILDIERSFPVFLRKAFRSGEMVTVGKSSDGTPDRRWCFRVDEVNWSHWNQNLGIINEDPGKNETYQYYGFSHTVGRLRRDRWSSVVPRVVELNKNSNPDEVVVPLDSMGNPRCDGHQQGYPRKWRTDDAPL

| Compound | pIC50 |
| --- | --- |
| N#Cc1ccc(S(=O)(=O)N2C[C@H](S(=O)(=O)c3ccc(C(F)(F)F)nc3)[C@](O)(CO)C2)c(C(F)(F)F)c1 [Example 27, 4-(((3R,4S)-3-hydroxy-3-(hydroxymethyl)-4-((6-(trifluoromethyl)pyridin-3-yl)sulfonyl)pyrrolidin-1-yl)sulfonyl)-3-(trifluoromethyl)benzonitrile] | 7.00 to 8.00 |
| N#Cc1ccc(S(=O)(=O)[C@H]2CN(S(=O)(=O)c3ccccc3Br)C[C@@]2(O)CO)cc1 [Example 33, 4-(((3S,4R)-1-((2-bromophenyl)sulfonyl)-4-hydroxy-4-(hydroxymethyl)pyrrolidin-3-yl)sulfonyl)benzonitrile] | 7.00 to 8.00 |
| N#Cc1ccc(S(=O)(=O)N2C[C@H](S(=O)(=O)c3ccc(Cl)cn3)[C@@](O)(CN)C2)c(Cl)c1 [Example 125, 4-(((3R,4S)-3-(aminomethyl)-4-((5-chloropyridin-2-yl)sulfonyl)-3-hydroxypyrrolidin-1-yl)sulfonyl)-3-chlorobenzonitrile] | 8.00 to 10.00 |
| N#Cc1ccc(S(=O)(=O)[C@H]2CN(S(=O)(=O)c3ccc(F)cc3C(F)(F)F)C[C@@]2(O)CO)cc1 [Example 29, 4-(((3S,4R)-1-((4-fluoro-2-(trifluoromethyl)phenyl)sulfonyl)-4-hydroxy-4-(hydroxymethyl)pyrrolidin-3-yl)sulfonyl)benzonitrile] | 8.00 to 10.00 |
| N#Cc1cc(C(F)(F)F)ccc1S(=O)(=O)N1C[C@H](S(=O)(=O)c2cc(F)c(F)c(F)c2)[C@](O)(CO)C1 [Example 94, 2-(((3R,4S)-3-hydroxy-3-(hydroxymethyl)-4-((3,4,5-trifluorophenyl)sulfonyl)pyrrolidin-1-yl)sulfonyl)-5-(trifluoromethyl)benzonitrile] | 7.00 to 8.00 |
| Cc1ccc(S(=O)(=O)N2C[C@H](S(=O)(=O)c3ccc(C#N)c(F)c3)[C@](O)(CO)C2)c(Cl)c1 [Example 13, 4-(((3S,4R)-1-((2-chloro-4-methylphenyl)sulfonyl)-4-hydroxy-4-(hydroxymethyl)pyrrolidin-3-yl)sulfonyl)-2-fluorobenzonitrile] | 8.00 to 10.00 |
| O=S(=O)(c1ccc(Cl)cc1)[C@H]1CN(S(=O)(=O)c2ccc(CF)cc2Cl)C[C@@]1(O)CO [Example 43, (3R,4S)-1-((2-chloro-4-(fluoromethyl)phenyl)sulfonyl)-4-((4-chlorophenyl)sulfonyl)-3-(hydroxymethyl)pyrrolidin-3-ol] | 7.00 to 8.00 |
| N#Cc1ccc(S(=O)(=O)N2C[C@H](S(=O)(=O)c3nccs3)[C@](O)(CO)C2)c(Cl)c1 [Example 68, 3-chloro-4-(((3R,4S)-3-hydroxy-3-(hydroxymethyl)-4-(thiazol-2-ylsulfonyl)pyrrolidin-1-yl)sulfonyl)benzonitrile] | 7.00 to 8.00 |
| N#Cc1ccc(S(=O)(=O)N2C[C@H](S(=O)(=O)c3ccc(C#N)c(F)c3)[C@](O)(CO)C2)c(Cl)c1 [Example 10, 4-(((3S,4R)-1-((2-chloro-4-cyanophenyl)sulfonyl)-4-hydroxy-4-(hydroxymethyl)pyrrolidin-3-yl)sulfonyl)-2-fluorobenzonitrile] | 8.00 to 10.00 |
| O=S(=O)(c1ccc(Cl)c(Cl)c1)[C@H]1CN(S(=O)(=O)c2ccc(Cl)cc2Cl)C[C@]1(O)CO [Example 115, (3S,4S)-1-((2,4-dichlorophenyl)sulfonyl)-4-((3,4-dichlorophenyl)sulfonyl)-3-(hydroxymethyl)pyrrolidin-3-ol] | 7.00 to 8.00 |
| N#Cc1ccc(S(=O)(=O)N2C[C@H](S(=O)(=O)c3ccc(Cl)c(F)c3)[C@](O)(CO)C2)c(Cl)c1 [Example 107, 3-chloro-4-(((3R,4S)-4-((4-chloro-3-fluorophenyl)sulfonyl)-3-hydroxy-3-(hydroxymethyl)pyrrolidin-1-yl)sulfonyl)benzonitrile] | 8.00 to 10.00 |
| N#Cc1ccc(S(=O)(=O)[C@H]2CN(S(=O)(=O)c3ccc(C(F)(F)F)cc3Cl)C[C@]2(O)CO)cc1F [Example 7, 4-(((3S,4S)-1-((2-chloro-4-(trifluoromethyl)phenyl)sulfonyl)-4-hydroxy-4-(hydroxymethyl)pyrrolidin-3-yl)sulfonyl)-2-fluorobenzonitrile] | 7.00 to 8.00 |
| N#Cc1ccc(S(=O)(=O)[C@H]2CN(S(=O)(=O)c3ccc(OC(F)(F)F)cc3Cl)C[C@]2(O)CO)cc1F [Example 8, 4-(((3S,4S)-1-((2-chloro-4-(trifluoromethoxy)phenyl)sulfonyl)-4-hydroxy-4-(hydroxymethyl)pyrrolidin-3-yl)sulfonyl)-2-fluorobenzonitrile] | 7.00 to 8.00 |
| COc1cc(Cl)ccc1S(=O)(=O)N1C[C@H](S(=O)(=O)c2ccc(C#N)cc2)[C@](O)(CO)C1 [Example 51, 4-(((3S,4R)-1-((4-chloro-2-methoxyphenyl)sulfonyl)-4-hydroxy-4-(hydroxymethyl)pyrrolidin-3-yl)sulfonyl)benzonitrile] | 7.00 to 8.00 |
| Cc1cc(C(F)(F)F)ccc1S(=O)(=O)N1C[C@H](S(=O)(=O)c2ccc(C#N)c(F)c2)[C@](O)(CO)C1 [Example 71, 2-fluoro-4-(((3S,4R)-4-hydroxy-4-(hydroxymethyl)-1-((2-methyl-4-(trifluoromethyl)phenyl)sulfonyl)pyrrolidin-3-yl)sulfonyl)benzonitrile] | 7.00 to 8.00 |
| N#Cc1cc(F)c(S(=O)(=O)[C@H]2CN(S(=O)(=O)c3ccc(Cl)cc3Cl)C[C@]2(O)CO)cc1F [Example 79, 4-(((3S,4S)-1-((2,4-dichlorophenyl)sulfonyl)-4-hydroxy-4-(hydroxymethyl)pyrrolidin-3-yl)sulfonyl)-2,5-difluorobenzonitrile] | 7.00 to 8.00 |
| N#Cc1ccc(S(=O)(=O)[C@H]2CN(S(=O)(=O)c3ccc(C(F)(F)F)cc3Cl)C[C@@]2(O)CO)cn1 [Example 92, 5-(((3S,4R)-1-((2-chloro-4-(trifluoromethyl)phenyl)sulfonyl)-4-hydroxy-4-(hydroxymethyl)pyrrolidin-3-yl)sulfonyl)picolinonitrile] | 7.00 to 8.00 |
| N#Cc1ccc(S(=O)(=O)[C@H]2CN(S(=O)(=O)c3ccc(Br)cc3Cl)C[C@@]2(O)CO)cc1 [Example 34, 4-(((3S,4R)-1-((4-bromo-2-chlorophenyl)sulfonyl)-4-hydroxy-4-(hydroxymethyl)pyrrolidin-3-yl)sulfonyl)benzonitrile] | 8.00 to 10.00 |
| COc1ccc(S(=O)(=O)N2C[C@H](S(=O)(=O)c3ccc(C#N)cc3)[C@](O)(CO)C2)c(Br)c1 [Example 60, 4-(((3S,4R)-1-((2-bromo-4-methoxyphenyl)sulfonyl)-4-hydroxy-4-(hydroxymethyl)pyrrolidin-3-yl)sulfonyl)benzonitrile] | 7.00 to 8.00 |
| N#Cc1ccc(S(=O)(=O)N2C[C@H](S(=O)(=O)c3ncc(Cl)s3)[C@](O)(CO)C2)c(Cl)c1 [Example 73, 3-chloro-4-(((3R,4S)-4-((5-chlorothiazol-2-yl)sulfonyl)-3-hydroxy-3-(hydroxymethyl)pyrrolidin-1-yl)sulfonyl)benzonitrile] | 7.00 to 8.00 |
| N#Cc1ccccc1S(=O)(=O)N1C[C@H](S(=O)(=O)c2ccc(C(F)(F)F)cc2)[C@](O)(CO)C1 [Example 53, 2-(((3R,4S)-3-hydroxy-3-(hydroxymethyl)-4-((4-(trifluoromethyl)phenyl)sulfonyl)pyrrolidin-1-yl)sulfonyl)benzonitrile] | 7.00 to 8.00 |
